Columns and labels:
Assay in all cases: coupled PPi-release A-domain assay (PPi-PFK/aldolase/TPI/GDH, NADH)
Assay type in all cases: biochemical
Details in all cases: apo-PCP form, 0.5 mM ATP, 1 mM MgCl2, pH 7.4, 0.1 mM EDTA, enzyme 0.5 μM
[1] = biological target: T1, Tcp12_ΔTE3 (Actinoplanes teichomyceticus, UniProt Q70AZ6)
T1 construct: gene tcp12; with MbtH-like protein Tcp17
Text: coupled PPi-release A-domain assay (PPi-PFK/aldolase/TPI/GDH, NADH) on Tcp12_ΔTE3

[2] = biological target: T2, Tcp12_ΔTE1 (Actinoplanes teichomyceticus, UniProt Q70AZ6)
T2 construct: gene tcp12; with MbtH-like protein Tcp17
Text: coupled PPi-release A-domain assay (PPi-PFK/aldolase/TPI/GDH, NADH) on Tcp12_ΔTE1

[3] = biological target: T3, Tcp12_ΔTE2 (Actinoplanes teichomyceticus, UniProt Q70AZ6)
T3 construct: gene tcp12; with MbtH-like protein Tcp17
Text: coupled PPi-release A-domain assay (PPi-PFK/aldolase/TPI/GDH, NADH) on Tcp12_ΔTE2

T3 sequence (Q70AZ6 entry or part of it, stated change not applied): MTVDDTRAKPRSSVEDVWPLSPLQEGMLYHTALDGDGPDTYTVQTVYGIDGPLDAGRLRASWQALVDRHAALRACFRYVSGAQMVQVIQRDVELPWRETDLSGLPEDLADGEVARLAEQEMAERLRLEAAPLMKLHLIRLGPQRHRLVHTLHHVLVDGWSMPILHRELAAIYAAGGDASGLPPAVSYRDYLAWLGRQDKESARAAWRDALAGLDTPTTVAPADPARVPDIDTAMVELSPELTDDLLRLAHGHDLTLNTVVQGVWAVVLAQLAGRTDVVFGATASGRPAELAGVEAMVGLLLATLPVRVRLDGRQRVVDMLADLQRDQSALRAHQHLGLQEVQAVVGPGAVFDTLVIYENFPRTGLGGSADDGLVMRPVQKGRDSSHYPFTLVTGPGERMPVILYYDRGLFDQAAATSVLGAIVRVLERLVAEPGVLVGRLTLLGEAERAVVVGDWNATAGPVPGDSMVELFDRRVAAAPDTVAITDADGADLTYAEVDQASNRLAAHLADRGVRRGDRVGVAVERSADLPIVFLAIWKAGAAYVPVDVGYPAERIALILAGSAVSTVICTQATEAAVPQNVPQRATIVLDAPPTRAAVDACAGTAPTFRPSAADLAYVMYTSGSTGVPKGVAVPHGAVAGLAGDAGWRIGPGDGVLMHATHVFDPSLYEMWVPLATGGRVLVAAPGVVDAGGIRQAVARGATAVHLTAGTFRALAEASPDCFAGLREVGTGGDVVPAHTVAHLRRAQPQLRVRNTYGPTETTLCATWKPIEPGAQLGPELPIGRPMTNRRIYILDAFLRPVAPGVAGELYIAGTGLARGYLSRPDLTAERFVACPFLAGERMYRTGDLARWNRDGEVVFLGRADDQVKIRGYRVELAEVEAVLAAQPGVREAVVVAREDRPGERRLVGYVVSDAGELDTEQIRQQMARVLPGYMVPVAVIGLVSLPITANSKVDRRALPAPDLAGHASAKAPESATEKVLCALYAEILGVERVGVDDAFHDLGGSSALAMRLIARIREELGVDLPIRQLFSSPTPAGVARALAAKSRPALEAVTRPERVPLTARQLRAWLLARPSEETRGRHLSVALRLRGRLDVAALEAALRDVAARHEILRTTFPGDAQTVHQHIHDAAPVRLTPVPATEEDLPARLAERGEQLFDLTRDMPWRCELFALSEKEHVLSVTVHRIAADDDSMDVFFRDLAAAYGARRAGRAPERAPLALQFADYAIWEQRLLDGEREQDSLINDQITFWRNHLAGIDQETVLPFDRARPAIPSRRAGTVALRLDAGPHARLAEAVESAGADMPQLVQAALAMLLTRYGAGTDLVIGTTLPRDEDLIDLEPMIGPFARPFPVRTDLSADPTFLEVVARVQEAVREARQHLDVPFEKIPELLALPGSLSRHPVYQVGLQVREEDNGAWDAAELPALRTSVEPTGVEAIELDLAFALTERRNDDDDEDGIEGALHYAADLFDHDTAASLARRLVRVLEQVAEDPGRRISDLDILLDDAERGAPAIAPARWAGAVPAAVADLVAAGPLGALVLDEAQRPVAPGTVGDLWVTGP
T3 sequence (Q70AZ1 entry or part of it, stated change not applied, further chain): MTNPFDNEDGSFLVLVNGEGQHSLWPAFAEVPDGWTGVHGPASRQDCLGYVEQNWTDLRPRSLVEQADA
T2 sequence (Q70AZ6 entry or part of it, stated change not applied): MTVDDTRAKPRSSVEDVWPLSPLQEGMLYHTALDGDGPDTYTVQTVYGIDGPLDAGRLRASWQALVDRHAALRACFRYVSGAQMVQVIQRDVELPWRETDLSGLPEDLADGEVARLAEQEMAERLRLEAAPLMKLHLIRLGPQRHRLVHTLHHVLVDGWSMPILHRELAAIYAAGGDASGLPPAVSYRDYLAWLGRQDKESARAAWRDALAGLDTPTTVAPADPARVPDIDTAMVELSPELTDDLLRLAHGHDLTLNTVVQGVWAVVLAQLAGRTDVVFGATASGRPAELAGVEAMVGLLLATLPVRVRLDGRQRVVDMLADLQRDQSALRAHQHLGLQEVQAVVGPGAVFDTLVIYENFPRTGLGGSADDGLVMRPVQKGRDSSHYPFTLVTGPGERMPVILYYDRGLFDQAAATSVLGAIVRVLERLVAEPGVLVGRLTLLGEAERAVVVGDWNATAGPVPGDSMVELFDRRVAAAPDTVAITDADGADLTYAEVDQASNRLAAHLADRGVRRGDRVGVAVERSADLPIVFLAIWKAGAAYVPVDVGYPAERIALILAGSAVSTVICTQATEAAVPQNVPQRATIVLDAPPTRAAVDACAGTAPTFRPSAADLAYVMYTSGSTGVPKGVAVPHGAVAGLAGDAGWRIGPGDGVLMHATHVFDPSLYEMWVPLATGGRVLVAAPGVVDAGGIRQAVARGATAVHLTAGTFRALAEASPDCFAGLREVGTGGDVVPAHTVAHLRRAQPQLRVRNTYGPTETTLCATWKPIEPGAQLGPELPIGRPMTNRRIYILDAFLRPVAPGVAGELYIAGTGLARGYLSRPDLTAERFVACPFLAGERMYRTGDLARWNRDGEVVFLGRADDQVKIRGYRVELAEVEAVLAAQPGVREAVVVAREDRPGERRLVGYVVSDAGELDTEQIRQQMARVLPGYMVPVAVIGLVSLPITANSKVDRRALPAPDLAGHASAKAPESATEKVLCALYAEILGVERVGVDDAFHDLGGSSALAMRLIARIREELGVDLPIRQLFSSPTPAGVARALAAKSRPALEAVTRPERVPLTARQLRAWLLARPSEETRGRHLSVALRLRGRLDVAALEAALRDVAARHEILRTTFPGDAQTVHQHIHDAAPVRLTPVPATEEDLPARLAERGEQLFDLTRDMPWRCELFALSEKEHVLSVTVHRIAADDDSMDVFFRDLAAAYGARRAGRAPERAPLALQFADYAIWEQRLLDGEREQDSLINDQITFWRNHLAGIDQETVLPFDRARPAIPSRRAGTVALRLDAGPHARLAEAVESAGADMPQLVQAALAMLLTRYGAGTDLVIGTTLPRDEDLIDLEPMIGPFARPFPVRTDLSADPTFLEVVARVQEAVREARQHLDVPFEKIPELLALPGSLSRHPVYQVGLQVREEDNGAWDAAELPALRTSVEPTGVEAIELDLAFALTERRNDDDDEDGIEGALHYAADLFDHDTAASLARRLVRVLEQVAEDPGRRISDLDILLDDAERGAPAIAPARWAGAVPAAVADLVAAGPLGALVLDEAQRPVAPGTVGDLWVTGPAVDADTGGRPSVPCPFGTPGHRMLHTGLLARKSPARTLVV
T2 sequence (Q70AZ1 entry or part of it, stated change not applied, further chain): as the sequence (Q70AZ1 entry or part of it, stated change not applied, further chain) above
T1 sequence (Q70AZ6 entry or part of it, stated change not applied): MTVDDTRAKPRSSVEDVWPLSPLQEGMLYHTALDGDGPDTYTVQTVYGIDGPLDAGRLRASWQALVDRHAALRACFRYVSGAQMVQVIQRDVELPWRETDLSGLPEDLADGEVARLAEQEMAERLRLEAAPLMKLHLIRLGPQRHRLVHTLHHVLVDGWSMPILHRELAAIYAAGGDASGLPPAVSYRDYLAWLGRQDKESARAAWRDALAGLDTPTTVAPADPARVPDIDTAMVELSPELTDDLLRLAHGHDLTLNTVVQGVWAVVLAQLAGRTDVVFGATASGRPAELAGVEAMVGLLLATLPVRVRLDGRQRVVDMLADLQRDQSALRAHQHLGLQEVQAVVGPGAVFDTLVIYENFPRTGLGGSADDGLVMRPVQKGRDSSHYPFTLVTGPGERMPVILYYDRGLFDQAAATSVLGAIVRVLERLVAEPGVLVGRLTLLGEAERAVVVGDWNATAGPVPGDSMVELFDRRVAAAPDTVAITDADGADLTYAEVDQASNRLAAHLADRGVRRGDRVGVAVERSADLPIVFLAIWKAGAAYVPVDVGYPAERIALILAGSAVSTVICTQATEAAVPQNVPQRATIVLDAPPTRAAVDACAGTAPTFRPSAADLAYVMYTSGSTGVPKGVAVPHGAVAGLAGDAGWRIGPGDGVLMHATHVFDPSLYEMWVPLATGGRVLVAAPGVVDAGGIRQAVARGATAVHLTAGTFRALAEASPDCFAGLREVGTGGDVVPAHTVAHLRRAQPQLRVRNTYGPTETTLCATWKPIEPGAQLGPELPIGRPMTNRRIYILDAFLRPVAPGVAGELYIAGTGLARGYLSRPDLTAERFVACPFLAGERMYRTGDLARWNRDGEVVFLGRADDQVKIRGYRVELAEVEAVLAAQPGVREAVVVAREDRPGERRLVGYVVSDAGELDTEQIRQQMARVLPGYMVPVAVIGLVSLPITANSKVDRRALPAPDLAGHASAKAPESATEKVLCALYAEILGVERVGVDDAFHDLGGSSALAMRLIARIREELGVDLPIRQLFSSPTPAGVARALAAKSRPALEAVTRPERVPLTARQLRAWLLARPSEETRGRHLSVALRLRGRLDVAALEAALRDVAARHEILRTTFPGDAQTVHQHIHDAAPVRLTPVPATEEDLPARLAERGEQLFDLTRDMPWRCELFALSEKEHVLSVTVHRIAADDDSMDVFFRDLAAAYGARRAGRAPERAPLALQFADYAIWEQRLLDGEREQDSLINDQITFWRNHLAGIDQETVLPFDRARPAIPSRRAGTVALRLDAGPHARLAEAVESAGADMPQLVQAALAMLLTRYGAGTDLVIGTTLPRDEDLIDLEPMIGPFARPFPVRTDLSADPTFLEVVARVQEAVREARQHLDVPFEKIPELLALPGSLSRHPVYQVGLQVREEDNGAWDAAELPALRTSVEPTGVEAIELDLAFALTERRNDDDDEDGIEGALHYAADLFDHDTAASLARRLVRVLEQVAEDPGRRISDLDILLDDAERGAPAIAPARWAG
T1 sequence (Q70AZ1 entry or part of it, stated change not applied, further chain): as the sequence (Q70AZ1 entry or part of it, stated change not applied, further chain) above

N[C@H](C(=O)O)c1cc(O)cc(O)c1 [Dpg, (S)-3,5-dihydroxyphenylglycine]
Km [1]: 8 ± 0.6 µM | Km [2]: 6 ± 0.6 µM | Km [3]: 10 ± 0.9 µM

Source: PMC6333238, “The biosynthetic implications of late-stage condensation domain selectivity during glycopeptide antibiotic biosynthesis” (Chemical Science, 2018)
